The text below walks through data of patent publication EP0314011A2, “Purine derivatives” (F. HOFFMANN-LA ROCHE AG, priority 1987, dated 1989).

The test has as its system HTLV III. Nature of the test: Anti-HIV activity: p24 antigen capture assay in HTLV III-infected C8166 cells. The class given is cell-based. To be noted: concentration giving 50% protection; C8166 cells (human CD4+ T-lymphoblast line) infected with 10-fold TCD50 of virus; 72 h incubation at 37°C; viral protein 24 antigen in supernatant. How it is done:
Die Aktivität der Purinderivate der vorliegenden Erfindung gegen HIV kann wie folgt nachgewiesen werden.
In diesem Versuch verwendet man HTLV III, gezüchtet in C8166-Zellen (eine menschliche CD4⁺ T-Lymphoblastenlinie), RPM1 1640 Medium mit Bicarbonatpuffer, Antibiotika und l0%igem fötalem Rinderserum. Eine Zellensuspension wird mit der 10-fachen TCD₅₀ des Virus infiziert. Man lässt 90 Minuten bei 37°C adsorbieren. Die Zellen werden mit dem Medium gewaschen. Der Versuch wird in 6 ml Gewebekulturröhrchen durchgeführt. Jedes Röhrchen enthält 2 x 10⁵ infizierte Zellen in 1,5 ml Medium. Es werden 15 µl einer Lösung der Substanz in wässrigem Medium oder in DMSO zugesetzt. Nach 72 Stunden Inkubation bei 37°C in einer feuchten 5% CO₂ enthaltenden Atmosphäre werden die Kulturen zentrifugiert. Ein aliquoter Teil des Ueberstandes wird solubilisiert und einem Antigenabfangversuch unterworfen unter Verwendung eines primären Antiserums mit besonderer Reaktivität gegen virales Protein 24 und eines Meerrettich-Peroxidase-Detektionssystems. Die Farbenerzeugung wird spektrophotometrisch gemessen und in Abhängigkeit der Konzentration der Testsubstanz dargestellt. Die einen 50%igen Schutz erzeugende Konzentration (IC₅₀) wird ermittelt. Die Resultate sind in der folgenden Tabelle angegeben: […]
In the case of `[N-]=[N+]=Nc1nc(N)c2ncn([C@@H]3O[C@H](CO)C[C@@H]3F)c2n1` [Beispiel 2, 6-Amino-2-azido-9-(2,3-dideoxy-2-fluor-β-D-threopentofuranosyl)-9H-purin], the IC50 (as a rule, the concentration needed to halve the response being measured) is 10 µM.

Compound `Nc1nc(Cl)nc2c1ncn2[C@@H]1O[C@H](CO)C[C@@H]1F` [Beispiel 1, 6-Amino-2-chlor-9-(2,3-dideoxy-2-fluor-β-D-threopentofuranosyl)-9H-purin] returned an IC50 of 1 µM.

`Nc1nc(N)c2ncn([C@@H]3O[C@H](CO)C[C@@H]3F)c2n1` [Beispiel 3, 2,6-Diamino-9-(2,3-dideoxy-2-fluor-β-D-threopentofuranosyl)-9H-purin]: the IC50 was 1 µM.
